In general, EC50 refers to the midpoint of the concentration-response curve.

In PubChem BioAssay AID720643 (The Scripps Research Institute Molecular Screening Center, 2013) one finds EC50 data, which are given here for 53 compounds.

The source made the active and inactive calls.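 The calls were made as follows: active = EC50 of 10 µM or lower; inactive = EC50 above 10 µM.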

For this assay, the target named is 5-hydroxytryptamine receptor 2A (Mus musculus) (UniProt P35363). Description: mouse HTR2A agonist potency, beta-arrestin, late-stage follow-up, cell-based, luminescence, CHO-K1, powder samples, dose response (AID 720643). The settings on record: CHO-K1 mHTR2A beta-arrestin PathHunter luminescence.
Sequence of 5-hydroxytryptamine receptor 2A (Mus musculus) (P35363 whole entry, looked up): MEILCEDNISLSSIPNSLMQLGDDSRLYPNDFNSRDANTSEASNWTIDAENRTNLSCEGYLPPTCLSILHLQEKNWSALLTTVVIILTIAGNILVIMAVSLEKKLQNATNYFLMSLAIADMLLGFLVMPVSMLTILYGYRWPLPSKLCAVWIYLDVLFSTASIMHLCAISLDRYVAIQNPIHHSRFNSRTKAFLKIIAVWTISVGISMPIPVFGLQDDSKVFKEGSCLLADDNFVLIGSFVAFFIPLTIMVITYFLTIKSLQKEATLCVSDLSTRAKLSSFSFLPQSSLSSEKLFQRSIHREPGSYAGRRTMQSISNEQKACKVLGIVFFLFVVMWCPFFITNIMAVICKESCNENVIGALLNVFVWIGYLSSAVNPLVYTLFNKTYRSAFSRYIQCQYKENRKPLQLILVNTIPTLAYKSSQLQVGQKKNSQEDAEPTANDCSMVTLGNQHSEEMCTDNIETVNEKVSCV

With `c1ccc(CN2CCN(c3ncccn3)CC2)cc1`, the EC50 is > 76.1 µM (inactive).
As to `CN(c1ccc(C(=O)N2CCN(Cc3ccccc3)CC2)cc1)S(=O)(=O)c1ccc(Cl)cc1`, the EC50 was > 76.1 µM (inactive).
Take `O=C(c1ccco1)N1CCN(Cc2ccc(Cl)cc2)CC1`: the EC50 was > 76.1 µM (inactive).
For the compound `NC1CCc2cc(O)c(O)cc2C1` (stereo not drawn), the EC50 was > 76.1 µM (inactive).
As for `Cn1cc(C(F)(F)F)nc1-c1ccc(OCC(O)CNCCOc2ccc(O)c(C(N)=O)c2)cc1` (stereo not drawn), the EC50 is > 76.1 µM (inactive).
For the compound `CC1CC(C)CN(CCOc2cccc(Cl)c2Cl)C1` (stereo not drawn), the EC50 is > 76.1 µM (inactive).
For `Cc1ccc(CN2CCN(c3ncccn3)CC2)c(C)c1`, the EC50 is > 76.1 µM (inactive).
`c1ccc(N2CCN(Cc3ccsc3)CC2)nc1`: the EC50 is > 76.1 µM (inactive).
As to `COc1ccc(CN2CCN(c3ncccn3)CC2)c(C)c1C`, the EC50 is > 76.1 µM (inactive).
Take `Clc1ccccc1CN1CCN(c2ncccn2)CC1`: the EC50 is > 76.1 µM (inactive).
On to `OCC1(Cc2cccc(C(F)(F)F)c2)CCN(Cc2cc3ccccc3o2)CC1`, for which the EC50 is > 76.1 µM (inactive).
Consider `COc1ccc(CN2CCN(C(=O)c3ccco3)CC2)cc1OCc1ccccc1`, for which the EC50 was > 76.1 µM (inactive).
`CCOC(=O)N1CCN(Cc2ccc(OCC(O)CN3CCCCC3)cc2)CC1` (stereo not drawn): the EC50 was > 76.1 µM (inactive).
`COc1ccc(CN2CCN(c3ccccn3)CC2)c(OC)c1`: the EC50 is > 76.1 µM (inactive).
Then `CC(COc1ccccc1)N1CCC(CO)(Cc2ccccc2)CC1` (stereo not drawn), with > 76.1 µM (inactive); and `Brc1cccc(CN2CCN(c3ncccn3)CC2)c1`, with > 76.1 µM (inactive); and `CC(C)C[C@H]1C(=O)N2CCC[C@H]2[C@]2(O)O[C@](NC(=O)[C@@H]3C=C4c5cccc6[nH]c(Br)c(c56)CC4N(C)C3)(C(C)C)C(=O)N12` (stereo partly drawn), with > 76.1 µM (inactive).
Turning to `Cc1cccc(CN2CCN(c3ncccn3)CC2)c1`, the EC50 is > 76.1 µM (inactive).
Then `Clc1ccccc1CN1CCN(c2ccccc2)CC1`, with > 76.1 µM (inactive); and `CC1(C)C(C=C(Cl)Cl)C1C(=O)N1CCN(Cc2ccccc2)CC1` (stereo not drawn), with > 76.1 µM (inactive).
For the compound `COc1ccccc1C(=O)NCCN1CCN(c2ccccc2)CC1`, the EC50 is > 76.1 µM (inactive).
With `COC(=O)C1=C(Cn2cnc3ccccc32)NC(=O)NC1c1cc(C)ccc1C` (stereo not drawn), the EC50 is 3.47 µM.
For the compound `Cc1ccc(CN2CCN(c3ncccn3)CC2)o1`, the EC50 was > 76.1 µM (inactive).
With `CC(=O)N1CCc2cc(C(=O)CN3CCN(c4cccc(Cl)c4)CC3)ccc21`, the EC50 was > 76.1 µM (inactive).
As for `NC[C@@H]1O[C@H](C23CC4CC(CC(C4)C2)C3)Cc2c1ccc(O)c2O`, the figure is > 76.1 µM (inactive); as for `C=CCN1CCc2nc(N)sc2CC1`, > 76.1 µM (inactive).
Consider `OC(COc1ccc2cc(Br)ccc2c1)CN1CCN(c2ccccn2)CC1` (stereo not drawn), for which the EC50 is > 76.1 µM (inactive).
On to `CCOc1ccc(NC(=O)CCN2CCN(c3ccccc3F)CC2)cc1`, for which the EC50 was > 76.1 µM (inactive).
As for `CCn1c(=O)cc(SCC(=O)NCCCN2CCN(c3ccccc3F)CC2)c2ccccc21`, the figure is > 76.1 µM (inactive); as for `Oc1ccc(CN2CCN(c3ncccn3)CC2)cc1`, > 76.1 µM (inactive); as for `Cc1cccc(CN2CCN(c3ccccn3)CC2)c1`, > 76.1 µM (inactive).
As for `Brc1ccc(CN2CCN(c3ccccn3)CC2)s1`, the figure is > 76.1 µM (inactive).
Consider `Cc1ccc(CN2CCN(c3ccccn3)CC2)s1`, for which the EC50 was > 76.1 µM (inactive).
With `COc1cccc(-n2cc(CNCc3cn(C)nc3-c3ccccc3F)cn2)c1`, the EC50 is > 76.1 µM (inactive).
Regarding `c1ccc(COc2ccc(CN3CCN(c4ccccn4)CC3)cc2)cc1`, the EC50 is > 76.1 µM (inactive).
Consider `COc1cc(CN2CCN(c3ncccn3)CC2)cc(OC)c1`, for which the EC50 is > 76.1 µM (inactive).
Consider `COc1ccc(CC2(CO)CCN(Cc3cc4ccccc4o3)CC2)cc1`, for which the EC50 is > 76.1 µM (inactive).
Then `Cc1ccsc1CN1CCN(c2ccccn2)CC1`, with > 76.1 µM (inactive).
As for `CCOc1cc(CN2CCN(C(=O)c3ccco3)CC2)ccc1OC`, the figure is > 76.1 µM (inactive); as for `CCOC(=O)C1CCN(Cc2cccc(Oc3ccc(Cl)cc3)c2)CC1`, > 76.1 µM (inactive); as for `CCc1ccc(CN2CCN(C(=O)c3ccco3)CC2)cc1`, > 76.1 µM (inactive).
`COc1cc(Br)cc(CN2CCN(c3ncccn3)CC2)c1O`: the EC50 was > 76.1 µM (inactive).
Consider `Fc1cccc(CN2CCN(c3ncccn3)CC2)c1`, for which the EC50 was > 76.1 µM (inactive).
As to `CC(=O)N1CCC(N2CCN(c3ccccc3F)CC2)CC1`, the EC50 was > 76.1 µM (inactive).
In the case of `COc1ccc(CN2CCN(c3ncccn3)CC2)c(OC)c1`, the EC50 is > 76.1 µM (inactive).
For `O=C(CN1CCN(c2ccccn2)CC1)Nc1ccc(Oc2ccccc2)cc1`, the EC50 was > 76.1 µM (inactive).
As to `Clc1ccc(CN2CCN(c3ncccn3)CC2)cc1`, the EC50 is > 76.1 µM (inactive).
In the case of `CCCN(CCC)C1CCc2cccc(O)c2C1` (stereo not drawn), the EC50 is > 76.1 µM (inactive).
Consider `Fc1ccccc1CN1CCN(c2ncccn2)CC1`, for which the EC50 is > 76.1 µM (inactive).
For `CCCN1CCC[C@H](c2cccc(O)c2)C1`, the EC50 is > 76.1 µM (inactive).
For `COc1cccc(OCC(O)CN2CCN(c3ccccn3)CC2)c1` (stereo not drawn), the EC50 was > 76.1 µM (inactive).
Then `Fc1ccc(F)c(CN2CCN(c3ncccn3)CC2)c1`, with > 76.1 µM (inactive); and `Clc1ccc(CN2CCN(c3ncccn3)CC2)cc1Cl`, with > 76.1 µM (inactive).
